Reference: PubChem BioAssay (NCI)
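At the GI50, growth is halved. TGI is the concentration that stops growth completely.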

Columns and labels:
Assay in all cases: growth of human tumour cells (NCI), 384-well format
MOLT-4 leukemia = system: MOLT-4 leukemia
NCI-H226 lung = system: NCI-H226 lung
NCI-H23 lung = system: NCI-H23 lung
NCI-H322M lung = system: NCI-H322M lung
NCI-H460 NSCLC = system: NCI-H460 NSCLC
NCI-H522 lung = system: NCI-H522 lung
NCI/ADR-RES ovarian = system: NCI/ADR-RES ovarian
OVCAR-3 ovarian = system: OVCAR-3 ovarian
OVCAR-4 ovarian = system: OVCAR-4 ovarian
OVCAR-8 ovarian = system: OVCAR-8 ovarian
PC-3 prostate = system: PC-3 prostate
RPMI-8226 leukemia = system: RPMI-8226 leukemia
RXF 393 renal = system: RXF 393 renal
SF-268 CNS = system: SF-268 CNS
SF-295 CNS = system: SF-295 CNS
SF-539 CNS = system: SF-539 CNS
SK-MEL-2 melanoma = system: SK-MEL-2 melanoma
SK-MEL-28 melanoma = system: SK-MEL-28 melanoma
SK-MEL-5 melanoma = system: SK-MEL-5 melanoma
SK-OV-3 ovarian = system: SK-OV-3 ovarian
SN12C renal = system: SN12C renal
SNB-19 CNS = system: SNB-19 CNS
SNB-75 CNS = system: SNB-75 CNS
SW-620 colon = system: SW-620 colon
TK-10 renal = system: TK-10 renal
U251 glioblastoma = system: U251 glioblastoma
UACC-257 melanoma = system: UACC-257 melanoma
UACC-62 melanoma = system: UACC-62 melanoma

**Q.** Which TGI (MOLT-4 leukemia) does the source give for `CN(C)C(=O)c1ccc(SC(=S)NCc2ccccc2)cc1` here?
**A.** 3.09 µM

**Q.** And the GI50 (NCI-H226 lung)?
**A.** 2.63 µM

**Q.** What about the TGI (NCI-H226 lung) of the same molecule?
**A.** 6.33 µM

**Q.** And the GI50 (NCI-H23 lung)?
**A.** 3.17 µM

**Q.** What about the TGI (NCI-H23 lung) of the same molecule?
**A.** 8.36 µM

**Q.** And the GI50 (NCI-H322M lung)?
**A.** 5.05 µM

**Q.** And the TGI (NCI-H322M lung)?
**A.** 15.7 µM

**Q.** What about the GI50 (NCI-H460 NSCLC) of the same molecule?
**A.** 2.73 µM

**Q.** What about the TGI (NCI-H460 NSCLC) of the same molecule?
**A.** 6.45 µM

**Q.** And the GI50 (NCI-H522 lung)?
**A.** 3.18 µM

**Q.** And the TGI (NCI-H522 lung)?
**A.** 7.34 µM

**Q.** What about the GI50 (NCI/ADR-RES ovarian) of the same molecule?
**A.** 2.96 µM

**Q.** And the TGI (NCI/ADR-RES ovarian)?
**A.** 6.23 µM

**Q.** What about the GI50 (OVCAR-3 ovarian) of the same molecule?
**A.** 3.8 µM

**Q.** What about the TGI (OVCAR-3 ovarian) of the same molecule?
**A.** 11.4 µM

**Q.** And the GI50 (OVCAR-4 ovarian)?
**A.** 15.7 µM

**Q.** What about the TGI (OVCAR-4 ovarian) of the same molecule?
**A.** 29.2 µM

**Q.** What about the GI50 (OVCAR-8 ovarian) of the same molecule?
**A.** 2.15 µM

**Q.** What about the TGI (OVCAR-8 ovarian) of the same molecule?
**A.** 4.31 µM

**Q.** And the GI50 (PC-3 prostate)?
**A.** 3.64 µM

**Q.** And the TGI (PC-3 prostate)?
**A.** 9.17 µM

**Q.** And the GI50 (RPMI-8226 leukemia)?
**A.** 0.458 µM

**Q.** And the TGI (RPMI-8226 leukemia)?
**A.** 1.22 µM

**Q.** What about the GI50 (RXF 393 renal) of the same molecule?
**A.** 1.83 µM

**Q.** And the TGI (RXF 393 renal)?
**A.** 3.34 µM

**Q.** What about the GI50 (SF-268 CNS) of the same molecule?
**A.** 3.83 µM

**Q.** What about the TGI (SF-268 CNS) of the same molecule?
**A.** 10.8 µM

**Q.** What about the GI50 (SF-295 CNS) of the same molecule?
**A.** 12.1 µM

**Q.** And the TGI (SF-295 CNS)?
**A.** 24.6 µM

**Q.** And the GI50 (SF-539 CNS)?
**A.** 1.77 µM

**Q.** What about the TGI (SF-539 CNS) of the same molecule?
**A.** 3.29 µM

**Q.** What about the GI50 (SK-MEL-2 melanoma) of the same molecule?
**A.** 1.54 µM

**Q.** And the TGI (SK-MEL-2 melanoma)?
**A.** 2.98 µM

**Q.** And the GI50 (SK-MEL-28 melanoma)?
**A.** 2.52 µM

**Q.** What about the TGI (SK-MEL-28 melanoma) of the same molecule?
**A.** 4.91 µM

**Q.** What about the GI50 (SK-MEL-5 melanoma) of the same molecule?
**A.** 1.91 µM

**Q.** What about the TGI (SK-MEL-5 melanoma) of the same molecule?
**A.** 3.38 µM

**Q.** And the GI50 (SK-OV-3 ovarian)?
**A.** 6.26 µM

**Q.** And the TGI (SK-OV-3 ovarian)?
**A.** 18.1 µM

**Q.** What about the GI50 (SN12C renal) of the same molecule?
**A.** 2.45 µM

**Q.** And the TGI (SN12C renal)?
**A.** 6.12 µM

**Q.** What about the GI50 (SNB-19 CNS) of the same molecule?
**A.** 3.37 µM

**Q.** What about the TGI (SNB-19 CNS) of the same molecule?
**A.** 9.21 µM

**Q.** And the GI50 (SNB-75 CNS)?
**A.** 4.09 µM

**Q.** And the TGI (SNB-75 CNS)?
**A.** 7.63 µM

**Q.** What about the GI50 (SW-620 colon) of the same molecule?
**A.** 2.87 µM

**Q.** And the TGI (SW-620 colon)?
**A.** 10.1 µM

**Q.** And the GI50 (TK-10 renal)?
**A.** 2.87 µM

**Q.** And the TGI (TK-10 renal)?
**A.** 6.13 µM

**Q.** What about the GI50 (U251 glioblastoma) of the same molecule?
**A.** 3.55 µM

**Q.** What about the TGI (U251 glioblastoma) of the same molecule?
**A.** 9.29 µM

**Q.** And the GI50 (UACC-257 melanoma)?
**A.** 2.9 µM

**Q.** And the TGI (UACC-257 melanoma)?
**A.** 5.66 µM

**Q.** And the GI50 (UACC-62 melanoma)?
**A.** 2.09 µM

**Q.** What about the TGI (UACC-62 melanoma) of the same molecule?
**A.** 3.61 µM
